Like-named read-outs stand apart in the source and are kept apart here.
Key:
leukemia L1210 ascites = assay: Leukemia L1210 ascites in mice; assay type: in vivo; conditions: 100 mg/kg intraperitoneally, BDF1 mice
KA-31 = conditions: for activity against KA-31 solid tumor (in words): 14 ip treatments
Ehrlich carcinoma = conditions: for C/T Index: Ehrlich carcinoma; for No. survivors/No. tested: mouse, in vivo, ip
pseudorabies virus = assay: animal or person; assay type: in vivo, mice (Swiss albino); conditions: Suid alphaherpesvirus 1, in Mus musculus, ip, 504 h, read-out: PD50 (Protective Dose50)
[1] = test system: herpes simplex type 1 virus; assay: animal or person; assay type: in vivo, mice (Swiss albino); conditions: intraperitoneally, -24, 0, +24 hr, mice, day 21, disodium salt; for ED50: Human alphaherpesvirus 1, ip, 504 h, read-out: PD50 (Protective Dose50)
[2] = test system: herpes simplex type 2 virus; assay: animal or person; assay type: in vivo, mice (Swiss albino); conditions: Human alphaherpesvirus 2, ip, 504 h, intraperitoneally, -24, 0, +24 hr, mice, day 21, read-out: PD50 (Protective Dose50)
herpes simlpex infection = conditions: oral and topical; Shipkowitz et al. 1973; cited from earlier work
Marek's disease = conditions: poultry; U.S. Pat. No. 3,836,650; cited from earlier work

O=C(O)CP(=O)(O)OC[C@H]1O[C@@H](n2cc(F)c(=O)[nH]c2=O)C[C@@H]1O [Compound A, 5-Fluoro-2-deoxyuridine-5'-mono-carboxymethylphosphonate]
activity against leukemia L1210 ascites (in words) (leukemia L1210 ascites): inactive
activity against KA-31 solid tumor (in words) (KA-31; 6.25 mg/kg): not at 6.25 mg/kg
activity against KA-31 solid tumor (in words) (KA-31; 12.5 mg/kg): activity was observed
activity against KA-31 solid tumor (in words) (KA-31; 25 mg/kg): activity was observed
C/T Index (KA-31; KA-31, 6.25 mg/kg ip × 14): 1.8
C/T Index (KA-31; KA-31, 12.5 mg/kg ip × 14): 3.8
C/T Index (KA-31; KA-31, 25 mg/kg ip × 14): 13.8
activity against sarcoma 180 (in words) (sarcoma 180; 12.5 mg/kg): inactive
activity against sarcoma 180 (in words) (sarcoma 180; 25 mg/kg): active
activity against sarcoma 180 (in words) (sarcoma 180; 50 mg/kg): active
C/T Index (sarcoma 180; sarcoma 180, 12.5 mg/kg ip × 8): 1.7
C/T Index (sarcoma 180; sarcoma 180, 25 mg/kg ip × 8): 2.2
C/T Index (sarcoma 180; sarcoma 180, 50 mg/kg ip × 8): 5.9
activity against Ehrlich carcinoma (in words) (Ehrlich carcinoma; 6.25 mg/kg): inactive
activity against Ehrlich carcinoma (in words) (Ehrlich carcinoma; 12.5 mg/kg): active
activity against Ehrlich carcinoma (in words) (Ehrlich carcinoma; 25 mg/kg): active
activity against Ehrlich carcinoma (in words) (Ehrlich carcinoma; 50 mg/kg): active
C/T Index (Ehrlich carcinoma; 6.25 mg/kg ip × 8): 1.5
C/T Index (Ehrlich carcinoma; 12.5 mg/kg ip × 8): 2.4
C/T Index (Ehrlich carcinoma; 25 mg/kg ip × 8): 3.4
C/T Index (Ehrlich carcinoma; 50 mg/kg ip × 8): 12.1
No. survivors/No. tested (Ehrlich carcinoma; 6.25 mg/kg): 16/16
No. survivors/No. tested (Ehrlich carcinoma; 12.5 mg/kg): 24/24
No. survivors/No. tested (Ehrlich carcinoma; 25 mg/kg): 23/24
No. survivors/No. tested (Ehrlich carcinoma; 50 mg/kg): 21/24

Nc1ncnc2c1ncn2[C@@H]1O[C@H](COP(=O)(O)CC(=O)O)[C@@H](O)[C@H]1O [Adenosine-5'-mono-carboxymethylphosphonate]
ED50 (pseudorabies virus): 386 mg/kg
ED50 [1]: 180 mg/kg
ED50 [2]: 575 mg/kg

Nc1ncnc2c1ncn2[C@H]1C[C@H](O)[C@@H](COP(=O)(O)CC(=O)O)O1 [2'-Deoxyadenosine-5'-monocarboxymethylphosphonate, monoacetonate]
ED50 [1]: 444 mg/kg

O=C(O)CP(=O)(O)O [Phosphonoacetic acid]
antiviral activity against herpes simplex infection (in words) (herpes simlpex infection): antiviral agent exhibiting oral and topical activity against herpes simlpex infection
usefulness in combating Marek's disease (in words) (Marek's disease): useful in combating Marek's disease in poultry

Nc1nc2c(ncn2[C@@H]2O[C@H](COP(=O)(O)CC(=O)O)[C@@H](O)[C@H]2O)c(=O)[nH]1 [Guanosine-5'-mono-carboxymethylphosphonate]
ED50 [1]: 144 mg/kg

O=C(O)CP(=O)(O)OC[C@H]1O[C@@H](n2ccc(=O)[nH]c2=O)[C@H](O)[C@@H]1O [Uridine-5'-mono-carboxymethylphosphonate]
ED50 [1]: 127 mg/kg

Cc1cn([C@H]2C[C@H](O)[C@@H](COP(=O)(O)CC(=O)O)O2)c(=O)[nH]c1=O [Thymidine-5'-mono-carboxymethylphosphonate]
ED50 [1]: 185 mg/kg

O=C(O)CP(=O)(O)OC[C@H]1O[C@@H](n2cc(I)c(=O)[nH]c2=O)C[C@@H]1O [5-Iodo-2'-deoxyuridine-5'-mono-carboxymethylphosphonate]
ED50 [1]: 110 mg/kg

Adenosine-2'-(or 3'),5'-bis-carboxymethylphosphonate
PD50 (Protective Dose50) ([1]; 30240 min): 197 mg/kg
